What all share (format): in vivo
Assay [1] concerns cocklebur (common cocklebur, Xanthium strumarium). The assay is described as follows: Test F pre-/postemergence: cocklebur. Conditions: Preemergence. An excerpt: Seeds of plant species selected from corn (Zea mays), soybean (Glycine max), velvetleaf (Abutilon theophrasti), lambsquarters (Chenopodium album), poinsettia, wild (wild poinsettia, Euphorbia heterophylla), pigweed, palmer (palmer pigweed, Amaranthus palmeri), waterhemp (common waterhemp, Amaranthus rudis), surinam grass (Brachiaria decumbens), crabgrass, Brazil (Brazilian crabgrass, Digitaria horizontalis), panicum, fall (fall panicum Panicum dichotomiflorum), crabgrass, large (large crabgrass, Digitaria sanguinalis), foxtail, giant (giant foxtail, Setaria faberii), foxtail, green (green foxtail Setaria viridis), goosegrass (Eleusine indica), ragweed (common ragweed, Ambrosia elatior), barnyardgrass (Echinochloa crus-galli), sandbur (southern sandbur, Cenchrus echinatus), arrowleaf sida (Sida rhombifolia), ryegrass, Italian (Italian ryegrass, Lolium multiflorum), dayflower, VA (Virginia (VA) dayflower, Commelina virginica), field bindweed (Convolvulus arvensis), cocklebur (common cocklebur, Xanthium strumarium), morningglory (Ipomoea coccinea), nightshade (eastern black nightshade, Solanum ptycanthum), kochia (Kochia scoparia), nutsedge, yellow (yellow nutsedge, Cyperus esculentus), johnsongrass (Sorghum halepense), smartweed (ladysthumb smartweed, Polygonum persicaria), and beggarticks (hairy beggarticks, Bidens pilosa), were planted into a silt loam soil and treated preemergence with test chemicals formulated in a non-phytotoxic solvent mixture which included a surfactant. At the same time, plants selected from these crop and weed species and also pigweed (Amaranthus retroflexus), waterhemp_RES1 (ALS/Triazine resistant common waterhemp, Amaranthus rudis) and waterhemp_RES2 (ALS/HPPD resistant common waterhemp, Amaranthus rudis) were planted in pots containing a planting medium comprising spaghnum peat moss, vermiculite, wetting agent and starter nutrients treated with postemergence applications of some of the test chemicals formulated in the same manner. Plants ranged in height from 2 to 18 cm for postemergence treatments (1- to 4-leaf stage).
Treated plants and controls were maintained in a greenhouse for 14 to 21 days, after which time all species were compared to controls and visually evaluated. Plant response ratings, summarized in Table E, are based on a scale of 0 to 100 where 0 is no effect and 100 is complete control. A dash (-) response means no test result.

The subject of assay [2] is pigweed, palmer (palmer pigweed, Amaranthus palmeri). In words: Test F pre-/postemergence: pigweed, palmer. In short, it runs like this:
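0–100 visual control scores, taken 14–21 d after application in the greenhouse. Preemergence treatment was made to silt loam soil at sowing. Postemergence sprays hit 1- to 4-leaf plants (2–18 cm) in peat/vermiculite mix. Surfactant-containing non-phytotoxic solvent served as the vehicle.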

Assay [3] has as its system barley, spring (spring barley, Hordeum vulgare). The assay is described as follows: Test D pre-/postemergence: barley, spring. The procedure, abridged:
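Scores run from 0 (no effect) to 100 (complete control), assigned by visual comparison with controls after 14 to 21 days in a controlled environment. Both preemergence application to silt loam and postemergence application to 1- to 4-leaf plants were tested.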

A further assay relates to Waterhemp. In words: Test C preemergence: waterhemp. Conditions: 62 g ai/ha, scale of 0 to 100, 0 is no effect, 100 is complete control. The source says:
Seeds of plant species selected from blackgrass (Alopecurus myosuroides), bromegrass, downy (downy bromegrass, Bromus tectorum), foxtail, green (green foxtail, Setaria viridis), ryegrass, Italian (Italian ryegrass, Lolium multiflorum), winter wheat (Triticum aestivum), wild oat (Avena fatua), galium (catchweed bedstraw, Galium aparine), bermudagrass (Cynodon dactylon), surinam grass (Brachiaria decumbens), cocklebur (common cocklebur, Xanthium strumarium), corn (Zea mays), large crabgrass (Digitaria sanguinalis), woolly cupgrass (Eriochloa villosa), foxtail, giant (giant foxtail, Setaria faberii), goosegrass (Eleusine indica), johnsongrass (Sorghum halepense), kochia (Kochia scoparia), lambsquarters (Chenopodium album), morningglory (Ipomoea coccinea), nightshade (eastern black nightshade, Solanum ptycanthum), nutsedge, yellow (yellow nutsedge, Cyperus esculentus), pigweed (Amaranthus retroflexus), ragweed (common ragweed, Ambrosia elation), soybean (Glycine max), common (oilseed) sunflower (Helianthus annuus), Russian thistle (Salsola kali) and velvetleaf (Abutilon theophrasti) were planted into a blend of loam soil and sand and treated preemergence with test chemicals formulated in a non-phytotoxic solvent mixture which included a surfactant.
Treated plants and controls were maintained in a greenhouse for 13 to 15 days, after which time all species were compared to controls and visually evaluated. Plant response ratings, summarized in Table C, are based on a scale of 0 to 100 where 0 is no effect and 100 is complete control. A dash (-) response means no test result.

The mark [4] stands for this setting: Preemergence, 16 g ai/ha, scale 0 to 100, 0 no effect, 100 complete control.
Where [5] appears, read: Preemergence, 31 g ai/ha, scale 0 to 100, 0 no effect, 100 complete control.
Where [6] appears, read: Preemergence, 125 g ai/ha, scale 0 to 100.
Setting [7] is: Preemergence, 250 g ai/ha, scale 0 to 100.
Where [8] appears, read: 31 g ai/ha, scale 0 to 100, 0 no effect, 100 complete control.
Where [9] appears, read: Postemergence, 31 g ai/ha, scale 0 to 100 (0 no effect, 100 complete control).
[10] abbreviates: Postemergence, 62 g ai/ha, scale 0 to 100 (0 no effect, 100 complete control).
Where [11] appears, read: Postemergence, 125 g ai/ha, scale 0 to 100, 0 no effect, 100 complete control.
Setting [12] is: Postemergence, 16 g ai/ha, scale 0 to 100.
The mark [13] stands for this setting: Preemergence, 62 g ai/ha, scale 0 to 100.
[14] abbreviates: 16 g ai/ha, scale 0 to 100, 0 no effect, 100 complete control.
The mark [15] stands for this setting: Postemergence, 250 g ai/ha, scale 0 to 100.
Where [16] appears, read: Postemergence, 31 g ai/ha, scale 0 to 100.
Setting [17] is: Postemergence, 62 g ai/ha, scale 0 to 100.
The mark [18] stands for this setting: Postemergence, 125 g ai/ha, scale 0 to 100.

Turning to `COc1nn(-c2cccc(F)c2)nc1Cc1ccnc(C(F)(F)F)c1` [Compound 139], the “Plant response rating, Cocklebur” value is recorded as 0 in assay [1] (62 g ai/ha, scale 0 to 100) and 0 in assay [1] (125 g ai/ha, scale 0 to 100).
As for `Cc1nn(-c2ccc(F)cc2F)nc1Oc1ccnc(C(F)(F)F)c1` [Compound 146], the “Plant response rating, Pigweed, Palmer” value came to 85 in assay [2] (setting [4]), 100 in assay [2] (setting [5]), 100 in assay [2] (setting [6]) and 100 in assay [2] (setting [7]).
Take `Cc1nn(-c2ccc(C(F)(F)F)c(F)c2)nc1Oc1ccnc(C(F)(F)F)c1` [Compound 148]: the “Plant response rating, Cocklebur” value in assay [1] (setting [8]) came out at 0; in assay [1] (125 g ai/ha, scale 0 to 100), 0. The “Plant response rating, Pigweed, Palmer” value in assay [2] (setting [4]) is given as 0; in assay [2] (setting [5]), 90; in assay [2] (setting [6]) it was 100; in assay [2] (setting [7]), 100. Moreover, the “Plant response rating: Barley, Spring” value is listed as 15 in assay [3] (setting [9]), 20 in assay [3] (setting [10]) and 25 in assay [3] (setting [11]). The “Plant response rating, Barley, Spring” value in assay [3] (setting [12]) came out at 10; in assay [3] (setting [4]), 0; in assay [3] (setting [5]) it was 0; in assay [3] (setting [13]) it was 5; in assay [3] (setting [6]), 5.
Consider `CCc1nn(-c2ccc(F)cc2)nc1Cc1ccnc(C(F)(F)F)c1` [Compound 154], for which the “Plant response rating, Waterhemp” value in the assay on Waterhemp is recorded as 100. Moreover, the “Plant response rating, Cocklebur” value in assay [1] (setting [14]) stood at 0; in assay [1] (62 g ai/ha, scale 0 to 100), 0; in assay [1] (250 g ai/ha, scale 0 to 100) it was 0. For the same molecule, the “Plant response rating, Pigweed, Palmer” value in assay [2] (setting [4]), in assay [2] (setting [5]), in assay [2] (setting [6]) and in assay [2] (setting [7]) was 100 in each case.
With `CCc1nn(-c2ccc(C(F)(F)F)cc2)nc1Cc1ccnc(C(F)(F)F)c1` [Compound 155], in the assay with Waterhemp, the “Plant response rating, Waterhemp” value is 100. In addition, the “Plant response rating, Cocklebur” value in assay [1] (62 g ai/ha, scale 0 to 100) was determined as 0; in assay [1] (125 g ai/ha, scale 0 to 100), 40; in assay [1] (250 g ai/ha, scale 0 to 100), 40. The “Plant response rating, Pigweed, Palmer” value in assay [2] (setting [6]) and in assay [2] (setting [7]) was 100 throughout. Further, the figures for the “Plant response rating: Barley, Spring” value in assay [3] (setting [9]), in assay [3] (setting [10]) and in assay [3] (setting [11]) were 15, 25 and 35, respectively. The “Plant response rating, Barley, Spring” value was found to be 10 in assay [3] (setting [12]); 0 in assay [3] (setting [4]); 5 in assay [3] (setting [5]); 5 in assay [3] (setting [13]); 10 in assay [3] (setting [6]).
Consider `Cc1nn(-c2ccc(F)c(C(F)(F)F)c2)nc1Cc1ccnc(C(F)(F)F)c1` [Compound 156], for which the “Plant response rating, Waterhemp” value in the assay with Waterhemp came to 100. For the same molecule, the “Plant response rating: Barley, Spring” value worked out at 20 in assay [3] (setting [9]), 25 in assay [3] (setting [10]) and 30 in assay [3] (setting [11]). Moreover, the “Plant response rating, Barley, Spring” value in assay [3] (setting [12]) is listed as 15; in assay [3] (setting [4]), 5; in assay [3] (setting [5]), 5; in assay [3] (setting [13]) it was 5; in assay [3] (setting [6]), 15.
Turning to `FCc1nn(-c2ccc(F)cc2)nc1Oc1ccnc(C(F)(F)F)c1` [Compound 160], in the assay on Waterhemp, the “Plant response rating, Waterhemp” value stood at 100.
On the same count and under the same terms, under `CCOCc1nn(-c2ccc(F)cc2)nc1Oc1ccnc(C(F)(F)F)c1` [Compound 163] stands 100.
As for `CCc1nn(-c2ccc(C(F)(F)F)cc2)nc1Oc1ccnc(C(F)(F)F)c1` [Compound 169], the “Plant response rating, Cocklebur” value was determined as 0 in assay [1] (setting [14]); 0 in assay [1] (setting [8]); 0 in assay [1] (62 g ai/ha, scale 0 to 100). In addition, the “Plant response rating, Pigweed, Palmer” value is listed as 100 in assay [2] (setting [15]); 50 in assay [2] (setting [12]); 50 in assay [2] (setting [16]); 90 in assay [2] (setting [17]); 100 in assay [2] (setting [18]); 35 in assay [2] (setting [4]). Besides, the “Plant response rating, Pigweed, Palmer” value in assay [2] (setting [5]), in assay [2] (setting [6]) and in assay [2] (setting [7]) was 100 each time.
Turning to `CCc1nn(-c2ccc(F)c(F)c2)nc1Oc1ccnc(C(F)(F)F)c1` [Compound 171], the “Plant response rating, Cocklebur” value in assay [1] (setting [14]) was determined as 0; in assay [1] (setting [8]) it was 0; in assay [1] (62 g ai/ha, scale 0 to 100) it was 0. For the same molecule, the “Plant response rating, Pigweed, Palmer” value was found to be 0 in assay [2] (setting [4]), 0 in assay [2] (setting [5]), 100 in assay [2] (setting [6]) and 100 in assay [2] (setting [7]).
`CCCc1nn(-c2ccc(F)c(F)c2)nc1Oc1ccnc(C(F)(F)F)c1` [Compound 172]: the “Plant response rating, Cocklebur” value in assay [1] (250 g ai/ha, scale 0 to 100) is given as 5. In addition, the “Plant response rating, Pigweed, Palmer” value in assay [2] (setting [15]), in assay [2] (setting [16]), in assay [2] (setting [18]), in assay [2] (setting [5]), in assay [2] (setting [6]) and in assay [2] (setting [7]) was 100 in each case.
Turning to `CCOc1nn(-c2ccc(Cl)cc2)nc1Cc1ccnc(C(F)(F)F)c1` [Compound 188], the “Plant response rating, Waterhemp” value with Waterhemp worked out at 100.
`CCOc1nn(-c2ccc(F)cc2)nc1Cc1ccnc(C(F)(F)F)c1` [Compound 196, 4-[[5-ethoxy-2-(4-fluorophenyl)-2H-1,2,3-triazol-4-yl]methyl]-2-(trifluoromethyl)pyridine]: the “Plant response rating, Cocklebur” value in assay [1] (setting [8]) is recorded as 0; in assay [1] (62 g ai/ha, scale 0 to 100) it was 0; in assay [1] (125 g ai/ha, scale 0 to 100), 0. Further, the “Plant response rating, Pigweed, Palmer” value in assay [2] (Postemergence, 8 g ai/ha, scale 0 to 100) is on record as 95; in assay [2] (setting [12]), 100; in assay [2] (setting [16]), 100; in assay [2] (setting [17]), 100; in assay [2] (setting [18]) it was 100. The figures for the “Plant response rating: Barley, Spring” value in assay [3] (setting [9]), in assay [3] (setting [10]) and in assay [3] (setting [11]) were 20, 35 and 55, respectively. In addition, the “Plant response rating, Barley, Spring” value worked out at 15 in assay [3] (setting [12]); 5 in assay [3] (setting [4]); 5 in assay [3] (setting [5]); 15 in assay [3] (setting [13]); 30 in assay [3] (setting [6]).

The values are drawn from patent publication US9302999B2, “Substituted triazoles as herbicides” (E. I. DU PONT DE NEMOURS AND COMPANY, priority 2012, dated 2016).
